Measurements: US20100261606A1, “Homogeneous and Storage-Stable Mixtures of Different Active Plant Protection Agent Granule Particles” (priority 2007, published 2010)
Several values for one entry are separate records, joined by “and”; a condition that tells them apart may be missing. Equal entries are not always repeated. Where two headings read alike, the source gives them in different places.

Assay type: physicochemical
Description: This therefore allows the use according to the invention of these mixture packs for plant protectant active substances which had previously shown to be “incompatible” in mixture with other active substances on or in a granule particle. Determining the “incompatibility” of individual active substances in an active substance mixture is effected by simply measuring the remaining residual amounts of active substance after a predetermined storage period. The reasons for this active substance “incompatibility” with other active substances may be based on a very wide range of factors. However, it poses a serious problem for formulation research, when active substance mixtures required by the market cannot be realized due to this problem. [table]

[1] = in Granule coformulation (2), prior art, n = 1
[2] = in Granule mixture (1), according to the invention, n = 3

Row | Structure (SMILES) | Absolute content after 2 months' storage at 40° C. [1] [% by weight] | Absolute content at the beginning of the storage [1] [% by weight] | Percentage change after 2 months' storage at 40° C. [1] [%] | Absolute content after 2 months' storage at 40° C. [2] | Absolute content at the beginning of the storage [2] | Degradation during storage (in words) | Change in content during storage (in words) (in granule mixture (according to the invention)) | Percentage change after 2 months' storage at 40° C. [2]
1 | O=C(Nc1ccc(F)cc1F)c1cccnc1Oc1cccc(C(F)(F)F)c1 [Diflufenican, diflufenican] | 3.79 | 3.79 | 0.0 | 12.8 % by weight and 12.1 % by weight | 12.5 % by weight and 12.3 % by weight and 12.1 % by weight |  |  | 
2 | COc1nc(C)nc(NC(=O)NS(=O)(=O)c2cc(I)ccc2C(=O)O)n1 [Iodosulfuron, iodosulfuron] | 0.039 | 0.135 | −71.0 | 0.367 % by weight and 0.360 % by weight and 0.382 % by weight | 0.330 % by weight and 0.312 % by weight and 0.378 % by weight | severe degradation | no appreciable change | 
3 | CC(C)N(C(=O)COc1nnc(C(F)(F)F)s1)c1ccc(F)cc1 [Flufenacet, flufenacet] | 12.10 | 12.40 | −2.4 | 39.2 % by weight and 38.3 % by weight and 39.9 % by weight | 39.8 % by weight and 40.0 % by weight and 40.6 % by weight |  |  | −1.5% and −4.3% and −1.7%
